Assay results published in ChEMBL document CHEMBL5620362 (Eur J Med Chem, 2023).
Active and inactive are the calls of the source. The rule behind the calls is not given here.

Tests used:
[1] = test system: CFPAC-1; experiment: Anticancer activity against human CFPAC-1 cells incubated for 72 hrs; assay type: functional, cell-based
[2] = Toxicity in nude Balb/cA mouse xenografted with human HPAF-II cells assessed as body weight loss at 90 to 180 mg/kg, po qd measured for 12 days; assay type: organism-based; conditions: in vivo, 288 h, dose 90-180 mg/kg, time 12 day
[3] = molecular target: T1, Nuclear receptor ROR-gamma (Homo sapiens, UniProt P51449); experiment: Binding affinity to CM5 chip-immobilized recombinant ROR-gamma LBD (unknown origin) assessed as dissociation constant by SPR analysis
T1 sequence (P51449 whole entry): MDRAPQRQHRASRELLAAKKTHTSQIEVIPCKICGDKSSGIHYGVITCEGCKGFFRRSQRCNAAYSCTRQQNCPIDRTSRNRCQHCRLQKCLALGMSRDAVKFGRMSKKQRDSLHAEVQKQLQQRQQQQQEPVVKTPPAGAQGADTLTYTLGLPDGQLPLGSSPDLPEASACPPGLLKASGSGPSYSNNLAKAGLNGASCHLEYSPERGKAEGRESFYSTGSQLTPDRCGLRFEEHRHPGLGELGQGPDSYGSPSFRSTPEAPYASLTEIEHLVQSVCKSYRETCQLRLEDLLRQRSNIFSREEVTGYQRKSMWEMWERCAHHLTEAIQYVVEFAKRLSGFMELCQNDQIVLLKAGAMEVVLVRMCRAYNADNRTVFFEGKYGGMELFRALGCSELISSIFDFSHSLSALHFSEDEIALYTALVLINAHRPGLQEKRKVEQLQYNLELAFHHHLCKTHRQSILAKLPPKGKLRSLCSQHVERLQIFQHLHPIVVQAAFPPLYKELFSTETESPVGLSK

[4] = test system: NCI-H23; experiment: Induction of apoptosis in human NCI-H23 cells assessed as necrotic cells at 0.01 uM incubated for 48 hrs by Annexin V-FITC/PI staining based flow cytometry (reference value: 0.78 %); assay type: functional
[5] = test system: HPAF-II; experiment: Induction of apoptosis in human HPAF-II cells assessed as necrotic cells at 1 uM incubated for 48 hrs by Annexin V-FITC/PI staining based flow cytometry (reference value: 8.09 %); assay type: functional
[6] = test system: NCI-H23; experiment: Induction of apoptosis in human NCI-H23 cells assessed as necrotic cells at 10 uM incubated for 48 hrs by Annexin V-FITC/PI staining based flow cytometry (reference value: 0.78 %); assay type: functional
[7] = test system: BXPC-3; experiment: Anticancer activity against human BXPC-3 cells incubated for 72 hrs; assay type: functional, cell-based
[8] = AUClast in ICR mouse at 3 mg/kg, iv; assay type: ADME, organism-based; conditions: in vivo
[9] = test system: NCI-H23; experiment: Anticancer activity against human NCI-H23 cells incubated for 72 hrs; assay type: functional, cell-based
[10] = test system: NCI-H23; experiment: Induction of apoptosis in human NCI-H23 cells assessed as necrotic cells at 1 uM incubated for 48 hrs by Annexin V-FITC/PI staining based flow cytometry (reference value: 0.78 %); assay type: functional
[11] = test system: HPAF-II; experiment: Downregulation of MEK phosphorylation level in human HPAF-II cells harboring siROR-gamma at 0.1 uM by Western blot analysis; assay type: functional, cell-based
[12] = test system: MIA PaCa-2; experiment: Inhibition of colony formation in human MIA PaCa-2 cells harboring siROR-gamma 0.1 uM incubated for 6 to 7 days by crystal violet staining based analysis; assay type: functional, cell-based; conditions: time 6-7 day

With `C=C(C)[C@@H]1CC[C@]2(C(=O)NCCCN(C)C)CC[C@]3(C)[C@H](CC[C@@H]4[C@@]5(C)CC[C@H](O)C(C)(C)[C@@H]5CC[C@]43C)[C@@H]12` the Activity [1] was “Active”, the Activity [2] was “Non-Toxic” and the Kd [3] was 180 nM. The Activity [4] was 2.81%, the Activity [5] was 2.06% and the Activity [6] was 0.61%. For the same compound, the Activity [7] was “Active”, the AUC(0-t) [8] was 2980 ng·h/mL and the Activity [9] was “Active”. The Activity [10] was 1.48%, the Activity [11] was “Active” and the inhibition [12] was “inactive”.
